Measurements published in patent US20220370565A1 (SHANGHAI INSTITUTE OF BIOLOGICAL PRODCCTS CO., LTD., priority 2019, published 2022).

Columns and labels:
[1] = tested on: human gastric cancer NCI-N87; experiment: subcutaneous transplanted tumors of human gastric cancer NCI-N87 in nude mice; assay type: in vivo; conditions: Avastin 10 mg/kg IV (first dose doubled), D 0, 3, 7, 10, 14, 17
Method: (§1) The indicators of tumor inhibition experiments in mice were to investigate the effect of drugs on tumor growth, and the specific indicators were T/C % or the rate of tumor growth inhibition TGI (%).
(§2) The diameter of the tumor was measured with a vernier caliper twice a week, and the formula for calculating the tumor volume (V) was: V=½xaxb^2, wherein a and b represented the length and width, respectively.
(§3) T/C(%)=(T−T0)/(C−C0)×100,
(§4) If a tumor was smaller than the initial volume, i.e., T<T0 or C<C0, it was defined as partial regression (PR) of the tumor; if a tumor disappeared completely, it was defined as complete regression (CR) of the tumor.
(§5) At the end of the experiment (e.g., D21), reaching the experimental endpoint, or the tumor volume reached 1,500 mm^3, the animals were sacrificed after CO2 anesthesia, and then the tumors were dissected and photographed.
Nude mice were subcutaneously (SC) inoculated with 6×10^6 human gastric cancer NCI-N87 cells. After the tumor grew to 100-150 mm^3, the animals were grouped according to tumor volume (D0). Mice were administered subcutaneously (SC) or intravenously (IV), twice a week (BIW); the administration volume was 10 mL/kg; the solvent group was administered with the same volume of “solvent” (normal saline); specific dosage and administration regimen were shown in Table 1. The tumor volumes were measured twice a week, the mice were weighed, and the data were recorded.
(§6) Two-tailed Student's t-test was used to compare tumor volumes between the two groups, and P<0.05 was defined as a statistically significant difference.

[2] = tested on: human liver cancer Huh-7; experiment: subcutaneous transplanted tumors of human liver cancer Huh-7 in nude mice; assay type: in vivo; conditions: Avastin 10 mg/kg IV (first dose doubled), D 0, 3, 7, 10, 14
Method: as §1, §2, §3, §4, §5
Nude mice were subcutaneously inoculated with 6×10^6 human liver cancer Huh-7 cells. After the tumor grew to 100-150 mm^3, the animals were grouped according to tumor volume (D0). Mice were administered subcutaneously (SC) or intravenously (IV), twice a week (BIW); the administration volume was 10 mL/kg; the solvent group was administered with the same volume of “solvent” (normal saline); specific dosage and administration regimen were shown in Table 2. The tumor volumes were measured twice a week, the mice were weighed, and the data were recorded.
as §6

[3] = half-life in cynomolgus monkeys; assay type: in vivo
[4] = specific activity in vitro
[5] = tested on: metastatic renal cancer and multiple myeloma; conditions: high-dose (500 μg/day) injection, patients; cited from earlier work
[6] = half-life in rats; assay type: in vivo
[7] = tested on: hairy cell leukemia; conditions: hairy cell leukemia patients; cited from earlier work

In the case of “Avastin: Bevacizumab injection, commercially available monoclonal antibody purchased from Roche Pharmaceuticals [reference compound]”, the “% T/C D 21” value [1] is reported as 51%, the “Mean tumor volume D 21 SEM” value [1] is reported as 561.1 ± 53.4 mm^3 and the “Tumor inhibition rate % D 21” value [1] is reported as 49%. For the same molecule, the “Mean tumor volume D 0 SEM” value ([1]; baseline at grouping) was 115.7 ± 2.7 mm^3, the “% T/C D 17” value [2] was 60% and the “Mean tumor volume D 17 SEM” value [2] was 1791.6 ± 105.7 mm^3. For the same molecule, the “Tumor inhibition rate % D 17” value [2] was 40% and the “Mean tumor volume D 0 SEM” value ([2]; baseline at grouping) was 122.7 ± 1.8 mm^3.

B1: ordinary interferon α1b: unmodified recombinant human interferon α1b, 166 amino acids, SEQ ID No.: 1 (protein, UniProt P01562 24-189, looked up)
Interferon alpha-1/13: CDLPETHSLDNRRTLMLLAQMSRISPSSCLMDRHDFGFPQEEFDGNQFQKAPAISVLHELIQQIFNLFTTKDSSAAWDEDLLDKFCTELYQQLNDLEACVMQEERVGETPLMNADSILAVKKYFRRITLYLTEKKYSPCAWEVVRAEIMRSLSLSTNLQERLRRKE
For B1, the half-life [3] is listed as 3.27 ± 1.48 h, the “specific activity relative to ordinary interferon α2a and 2b” value [4] is listed as 10% and the “adverse reactions compared with other ordinary interferons” value [5] is listed as “milder”. For the same molecule, the therapeutic effect [5] was “certain therapeutic effect”, the half-life [6] was 1.84 h and the adverse reaction [7] was “only a short-term low-grade fever”. For the same molecule, the effective rate [7] was 63.64% and the remission rate [7] was 36.36%.
